Active and inactive are the calls of the source. The rule behind the calls is not given here.
Tested on: Chikungunya virus infected cells, antiviral inhibition
Assay: Chikungunya virus antiviral inhibition, dose response, cell-based, secondary assay (AID 623935)

| Structure (SMILES) | IC50 |
| --- | --- |
| CCN1CCN(Cc2nc3ccc([N+](=O)[O-])cc3c(=O)n2-c2ccccc2F)CC1 | > 100 µM (inactive) |
| CN(C(=O)Cc1cccs1)c1nc2c(s1)CCCC2 | 3.16 µM |

Source: PubChem BioAssay AID623935 (Southern Research Specialized Biocontainment Screening …, 2012)
